Reference: patent publication US20230027295A1, “FXIA INHIBITORS AND PREPARATION METHOD THEREFOR AND PHARMACEUTICAL USE THEREOF” (Shenzhen Salubris Pharmaceuticals Co., Ltd., priority 2019, published 2023)

Columns and labels:
[1] = Cynomolgus monkey pharmacokinetics; type: in vivo; set-up: AUC: concentration or dose not given beside the values
Excerpt: Example 53: Investigation of the Pharmacokinetic Characteristics of the Compounds of the Present Invention
SD rats: male, 180-250 g, purchased from Guangdong Medical Laboratory Animal Center. Cynomolgus monkey: male, 4-6 kg, purchased from Guangzhou Chunsheng Biological Research Institute Co., Ltd. Beagle dog: male, 8-12 kg, developed in Kanglong Chemical (Ningbo) New Drug Technology Co., Ltd.
Reagents: DMSO (dimethyl sulfoxide), PEG-400 (polyethylene glycol 400), normal brine, heparin, acetonitrile, formic acid, and propranolol (internal standard) are commercially available.
Instrumentation: Thermo Fisher Scientific LC-MS (U300 UPLC, TSQ […] ULTRA triple quadrupole mass spectrometer).
The compound was weighed and dissolved in DMSO-PEG-400-physiological brine (5:60:35, v/v/v) system. After the rats/monkeys were administered intravenously or by gavage, 200 μL of venous blood was collected at 5 min (not collected when administered by gavage), 15 min, 30 min, 1 h, 2 h, 4 h, 6 h, 8 h, and 24 h in heparinized EP tubes, centrifuged at 12000 rpm for 2 min, and the plasma was frozen at −80° C. for testing. A certain amount of the test substance was precisely weighed and dissolved in DMSO to 1 mg/mL, which was used as a stock solution. An appropriate amount of compound stock solution was accurately pipetted and diluted with acetonitrile to prepare a standard series of solutions. 20 μL of each of the above standard series solutions were accurately pipetted, added with 180 μL of blank plasma, vortexed and mixed to prepare plasma samples equivalent to plasma concentrations of 1, 3, 10, 30, 100, 300, 1000, 3000 and 5000 ng/mL. Two-sample analysis was performed for each concentration to establish a standard curve. 20 μL of plasma was taken out, added with 200 μL of internal standard propranolol (5 ng/mL) in acetonitrile, vortexed and mixed. It was centrifuged at 4000 rpm for 5 min, and the supernatant was collected for LC-MS analysis. LC-MS detection conditions were as follows:
Chromatographic column: Thermo Scientific […] GOLD C-18 UPLC column, 100*2.1 mm, 1.9 μm.
Mobile phase: water (0.1% formic acid)-acetonitrile for gradient elution according to the table below.
After blood drug concentrations being detected by LC-MS, WinNonlin 6.1 software was used to calculate pharmacokinetic parameters by non-compartmental model method.

Caco-2 permeability = type: in vitro ADME; conditions: human
Description: Example 54: Investigation of the Caco-2 Data of the Compounds of the Present Invention
Medium: DMEM (Corning), FBS (Corning), double antibody (Solarbio), 96-well HTS transwell plate (Corning), Caco-2 cells.
Experimental method: Caco-2 cells were cultured on 96-well HTS transwell plate for 14-18 days, and the TEER value of each well was detected to ensure that the cells in each well formed a complete monolayer. Drug was added and it was incubated for 2h to detect the drug concentrations of A-B and B-A.
Data processing: PappA-B and PappB-A values were calculated: Papp=(VA×[drug]acceptor)/(Area×Time×[drug]initial, donor); Efflux Ratio was calculated: Efflux Ratio=Papp(B-A)/Papp(A-B).

[2] = Caco-2 monolayer, 2h incubation

F ([1]; ig): 4.1%
AUC ([1]; male, plasma, iv): 4220 ng·h/mL
Cmax ([1]; male, plasma, iv): 8760 ng/mL
Tmax ([1]; male, plasma, iv): 0.083 h
clearance ([1]; male, plasma, iv): 4.1 mL/min/kg
half-life ([1]; male, plasma, iv): 1.2 h
Vd ([1]; male, plasma, iv, read-out: Vss): 0.2 L/kg
AUC ([1]; male, plasma, po, ig): 1490 ng·h/mL
Cmax ([1]; male, plasma, po, ig): 108 ng/mL
Tmax ([1]; male, plasma, po, ig): 2 h
half-life ([1]; male, plasma, po, ig): 8 h
efflux ratio at 2 h (Caco-2 permeability; Caco-2, Papp(B-A)/Papp(A-B)): 8.75
Papp A→B at 2 h (Caco-2 permeability; [2]): 1.55 ×10⁻⁶ cm/s
Papp B→A at 2 h (Caco-2 permeability; [2]): 13.6 ×10⁻⁶ cm/s
Compound: COc1cn([C@@H](Cc2ccccc2)C(=O)Nc2ccc(C(=O)O)cc2)c(=O)cc1-c1cc(Cl)ccc1C(C)=O [Compound B, (S)-4-(2-(4-(2-acetyl-5-chlorophenyl)-5-methoxy-2-oxopyridinium-1(2H)-yl)-3-phenylpropanamido)benzoic acid, reference compound]
